# Laboratory results from patent US8436002B2, “AKT inhibitors” (Eli Lilly and Company, priority 2009, dated 2013).
# Where “and” joins values, the source holds several entries; their conditions need not be identical. Equal values may be shown once.
# Experiments:
# Calu6 = assay: Cell proliferation combination study (CellTiter-Glo); assay type: cell-based
# Experimental: (§1) The proliferation assay uses the CellTiter-Glo Luminescent Cell Viability Assay System (commercially available from Promega) to determine the cell number of viable cells in culture based on quantitation of the ATP present, which signals the presence of metabolically active cells.
# (§2) The cells are plated in 96-well plate at 2000 cells/well in volume of 50 μL medium (DMEM, 10% FBS, 25 mM HEPES, 1.0 mM Sodium Pyruvate, and 0.1 mM Non Essential Amino Acids) except column 1 with medium only as blank control. The plates are incubated overnight at 37° C. and 5% CO2. On the next day, compound stocks are prepared at 40 mM in DMSO (500×) and serially diluted in DMSO in a 96-well round bottom polypropylene plate. Compounds are assayed at 10 concentrations in duplicate, 4 compounds per plate.
# (§3) 4 μL of the serial DMSO dilutions are transferred to a 96 deep-well plate and 1 mL complete culture medium is added to create 2× stock for dosing. 50 μL of each 2× dosing stock is gently transferred to the corresponding well of the cell plate resulting in a 0.2% DMSO concentration and a 100 μL final volume. […] medium are added to the Control columns (Column 12) and background columns (Column 1). Cells are incubated with compound for at 37° C., 5% CO2 for 72 hr.
# (§4) After incubation, 100 μL of the pre-prepared CellTiter-Glo reagent (Promega, Cat: G7571) is added in each well and then the cells are homogenized by mixing on an orbital shaker for 2 min and incubated at RT for 10 minutes to allow luminescent signal stabilization Luminescent raw data is recorded on Wallac Victor V plate reader and the IC50 value for each compound is generated using percent inhibition data. A four-parameter logistic curve is fit to each dose response.
# (§5) Combination studies use the fixed ratio method, where the other therapeutic agent and the compound of the present invention are present in fixed ratios of concentrations corresponding to the IC50 equivalents of single agents. The read out for the combination studies is cell proliferation in respective cell lines using Cell Titer Glo reagents. Controls are processed similarly but without the compounds. Analysis of the data is done according to the method described in Zhao et. Al. (Clinical Cancer Research 10, 7994-8004, Dec. 1, 2004) utilizing an internally developed web based tool. A combination index is calculated for each cell proliferation inhibition activity level according to the equation below. Combination Index at activity level x=[Concentration of other therapeutic agent in the combination at the activity level x/ICx of the other therapeutic agent]+[Concentration of the compound of the present invention in the combination at the activity level x/ICx of the compound of the present invention]
# NCI-H1975 = assay: as above; assay type: cell-based
# Experimental: as §1, §2, §3, §4, §5
# H1155 = assay: as above; assay type: cell-based; details: with Gemcitabine
# Experimental: as §1, §2, §3, §4, §5
# MDA-MB-231 = assay: as above; assay type: cell-based
# Experimental: as §1, §2, §3, §4, §5
# SK0V3 = assay: as above; assay type: cell-based
# Experimental: as §1, §2, §3, §4, §5
# BxPC3 = assay: as above; assay type: cell-based
# Experimental: as §1, §2, §3, §4, §5
# MCF-7 = assay: as above; assay type: cell-based
# Experimental: as §1, §2, §3, §4, §5
# NCIH460 = assay: as above; assay type: cell-based
# Experimental: as §1, §2, §3, §4, §5
# AsPC1 = assay: as above; assay type: cell-based
# Experimental: as §1, §2, §3, §4, §5
# H1650 = assay: as above; assay type: cell-based
# Experimental: as §1, §2, §3, §4, §5
# HCC827 = assay: as above; assay type: cell-based
# Experimental: as §1, §2, §3, §4, §5
# A2780 = assay: as above; assay type: cell-based
# Experimental: as §1, §2, §3, §4, §5
# RKO = assay: as above; assay type: cell-based; details: with Irinotecan
# Experimental: as §1, §2, §3, §4, §5
# AKT = AKT In Vivo Target Inhibition (IV), U87MG tumors in athymic rats; details: Rattus norvegicus, U-87 MG, IV dose 20 mpk, 4 hr post IV dose, n = 2, read-out: p(S9)GSK 3β - % inhibition
# Experimental: Exponentially growing U87MG cells derived from a human glioblastoma are implanted subcutaneously in the rear flank of athymic rats. When the tumors reach the size of 200-250 mm^3, compounds are administered to the animals by a single IV injection in a dose-response study or in a time-course study. At the end of each treatment, animals are asphyxiated with CO2. Tumors are harvested by surgical excision, quickly frozen in liquid nitrogen and stored at −80° C. until analysis. Sera are prepared from blood harvested from the heart by cardiac puncture and stored at −80° C. until analysis.
# The AKT inhibitor is extracted from serum with acetonitrite/methanol and analyzed alongside an internal standard by LC/MS/MS. […]
# Tumors are homogenized in 2 volumes of a lysis buffer containing 25 mM Tris (pH 7.5), Roche complete protease inhibitors, and 1 mM vanadate with Powergen 125 homogenizer, then sequentially passed through an 18 gauge needle and a 23 gauge needle. […] Protein concentrations in the cytoplasmic extracts are determined with a BCA kit. Phospho-GSK3b (pGSK3b) in the soluble extracts is analyzed with the ELISA Kit. For each study, percent inhibitions are calculated relative to the vehicle control group and ANOVA analysis is performed using the JMP software package for the determination of statistical significance.
compound,measurement,setting,value
"C[C@@H]1CC(=O)Nc2ncnc(N3CCC(c4nc(C(F)(F)F)cn4CCN4CCCC4)CC3)c21 (single isomer, unassigned) [Example 77]",Combination Index at 50% Inhibition,Calu6; with Cisplatin,0.86
same,Combination Index at 50% Inhibition,Calu6; with Docetaxel,0.65
same,Combination Index at 50% Inhibition,Calu6; with Erlotinib,0.20
same,Combination Index at 50% Inhibition,Calu6; with Gemcitabine,1.16
same,Combination Index at 50% Inhibition,Calu6; with Pemetrexed,0.93
same,Combination Index at 50% Inhibition,Calu6; with Tasisulam,1.16
same,Combination Index at 50% Inhibition,NCI-H1975; with Cisplatin,0.77
same,Combination Index at 50% Inhibition,NCI-H1975; with Docetaxel,1.13
same,Combination Index at 50% Inhibition,NCI-H1975; with Erlotinib,0.47
same,Combination Index at 50% Inhibition,NCI-H1975; with Gemcitabine,0.55
same,Combination Index at 50% Inhibition,NCI-H1975; with Pemetrexed,1.73
same,Combination Index at 50% Inhibition,H1155,0.43
same,Combination Index at 50% Inhibition,MDA-MB-231; with Erlotinib,0.05
same,Combination Index at 50% Inhibition,MDA-MB-231; with Gemcitabine,0.39
same,Combination Index at 50% Inhibition,MDA-MB-231; with Paclitaxel,1.13
same,Combination Index at 50% Inhibition,MDA-MB-231; with Rapamycin,0.01
same,Combination Index at 50% Inhibition,SK0V3; with Cisplatin,1.00
same,Combination Index at 50% Inhibition,SK0V3; with Doxorubicin,1.12
same,Combination Index at 50% Inhibition,BxPC3; with Erlotinib,0.36
same,Combination Index at 50% Inhibition,BxPC3; with Gemcitabine,1.13
same,Combination Index at 50% Inhibition,BxPC3; with Rapamycin,0.15
same,Combination Index at 50% Inhibition,MCF-7; with Erlotinib,0.58
same,Combination Index at 50% Inhibition,MCF-7; with Gemcitabine,0.10
same,Combination Index at 50% Inhibition,MCF-7; with Paclitaxel,0.60
same,Combination Index at 50% Inhibition,MCF-7; with Rapamycin,0.46
same,Combination Index at 50% Inhibition,MCF-7; with Tamoxifen,0.74
same,Combination Index at 50% Inhibition,NCIH460; with Cisplatin,0.76 and 0.91
same,Combination Index at 50% Inhibition,NCIH460; with Docetaxel,0.82
same,Combination Index at 50% Inhibition,NCIH460; with Erlotinib,0.64
same,Combination Index at 50% Inhibition,NCIH460; with Gemcitabine,0.88
same,Combination Index at 50% Inhibition,AsPC1; with Erlotinib,0.23
same,Combination Index at 50% Inhibition,AsPC1; with Gemcitabine,0.23
same,Combination Index at 50% Inhibition,AsPC1; with Rapamycin,0.22
same,Combination Index at 50% Inhibition,H1650; with Erlotinib,0.04
same,Combination Index at 50% Inhibition,H1650; with Gemcitabine,0.43
same,Combination Index at 50% Inhibition,H1650; with Rapamycin,0.07
same,Combination Index at 50% Inhibition,"HCC827; with Erlotinib, HCC827",1.87
same,Combination Index at 50% Inhibition,"HCC827; with Gemcitabine, HCC827",0.17
same,Combination Index at 50% Inhibition,"HCC827; with Rapamycin, HCC-827",1.13
same,Combination Index at 50% Inhibition,A2780; with Cisplatin,0.93
same,Combination Index at 50% Inhibition,A2780; with Doxorubicin,0.85
same,Combination Index at 50% Inhibition,RKO,0.83
"C[C@@H]1CC(=O)Nc2ncnc(N3CCC(c4nc(C(F)(F)F)cn4CCN4CCCC4)CC3)c21 [Example 78, (R)-5-Methyl-4-(4-(1-(2-(pyrrolidin-1-yl)ethyl)-4-(trifluoromethyl)-1H-imidazol-2-yl)piperidin-1-yl)-5,6-dihydropyrido[2,3-d]pyrimidin-7(8H)-one]",inhibition at 20 mg/kg,AKT,48%
